# Measurements from patent US20240166630A1, “INDOLE DERIVATIVES AS SEROTONERGIC AGENTS USEFUL FOR THE TREATMENT OF DISORDERS RELATED THERETO” (Mindset Pharma Inc., priority 2021, published 2024).
# Values joined by “and” are separate entries in the source; they are usually repeats but may differ in a detail not shown here. Identical values can stand only once. Like-named read-outs stand apart in the source and are kept apart here.
# Experiments:
# [1] = biological target: T1, human 5-HT2A (h5-HT2A) receptor (Homo sapiens, UniProt P28223); assay: FLIPR assay, human 5-HT2A receptor under agonist mode; assay type: cell-based
# T1 construct: expressed in transfected cells; kept under G418 and hygromycin B selection
# Experimental: I. Assessment of the Activated Effect of Compounds of Formula I-B Targeting on Human 5-HT2A (h5-HT2A) Receptor Under Agonist Mode:
# 1. The cells were cultured in cell culture medium (DMEM containing 10% FBS, 1× penicillin-streptomycin 300 μg/ml G418 and 100 μg/ml hygromycin B) at 37° C., 5% (v/v) CO2.
# 2. One day before the assays, the cells were detached using TrypLE™ Express and count cells using cell counter.
# 3. 20000 cells/well were seeded in 30 μl/well culture medium to a 384-well cell plate and incubated the cells overnight at 37° C., 5% (v/v) CO2.
# 4. On the assay day, 2×dye solution was prepared following the manual of the FLIPR® Calcium 6 Assay Kit: i. The dye was diluted with assay buffer (20 mM HEPES in 1×HBSS, PH7.4); ii. probenecid was added to the final concentration of 5 mM; iii. Vortexed vigorously for 1-2 minutes.
# 5. Medium was removed from cell plate by flicking the cell plate on towel papers.
# 7. The cell plate was placed on plate shaker, the plate agitated at 600 rpm for 2 minutes. The plate was incubated at 37° C. for 2 hours followed by additional 15-minute incubation at 25° C.
# 8. 3×compound was prepared in assay buffer: a. Reference compounds were diluted to required concentration with DMSO. The compounds were added to a 384-well compound plate; b. Serial dilutions were performed; c. 10 mM test compounds were added to the compound plate, 3-fold serial dilutions were performed. […] 20 μl/well assay buffer was added to the compound plate; f.
# 9. The cell plate, compound plate and tips were placed into FLIPR, 10 μl of 3× compound was transferred to the cell plate per well with FLIPR.
# i. The normalized fluorescence reading (RFU) was calculated as shown follow, while Fmax and Fmin stand for maximum and minimum of calcium signal during defined time window: RFU=Fmax−Fmin
# ii. The percentage activation was calculated by using following equation: […]
# iii. EC50 was calculated by fitting % activation against log of compound concentrations with Hill equation using Xlfit.
# [2] = Liver microsomes stability with NADPH, mouse
# Experimental: The objective of this study was to estimate in vitro metabolic stability of representative compounds of the application in pooled human and male mouse liver microsomes. The concentrations of parent compounds in reaction systems were evaluated by LC-MS/MS for estimating the stability in pooled human and male mouse liver microsomes. The in vitro intrinsic clearances of test compounds were determined as well.
# A master solution in the “Incubation Plate” containing phosphate buffer, ultra-pure H2O, MgCl2 solution and liver microsomes was made according to Table 3. The mixture was pre-warmed at 37° C. water bath for 5 minutes.
# 40 μL of 10 mM NADPH solution was added to each well. The final concentration of NADPH was 1 mM. The negative control samples were prepared by replacing NADPH with 40 μL of ultra-pure H2O. Samples were prepared in duplicate. Negative controls were prepared in singlet.
# The reaction was started with the addition of 4 μL of 200 μM test compounds or control compounds to each master solution to get the final concentration of 2 μM. This study was performed in duplicate.
# Aliquots of 50 μL were taken from the reaction solution at 0, 15, 30, 45 and 60 minutes. The reaction solutions were stopped by the addition of 4 volumes of cold methanol with IS (100 nM alprazolam, 200 nM imipramine, 200 nM labetalol and 2 μM ketoprofen). Samples were centrifuged at 3,220 g for 40 minutes. Aliquot of 90 μL of the supernatant was mixed with 90 μL of ultra-pure H2O and then was used for LC-MS/MS analysis.
# LC/MS analysis was performed for all samples from this study using a Shimadzu liquid chromatograph separation system equipped with degasser DGU-20A5R; solvent delivery unit LC-30AD; system controller SIL-30AC; column oven CTO-30A; CTC Analytics HTC PAL System; Mass spectrometric analysis was performed using an Triple Quad™ 5500 instrument.
# All calculations were carried out using Microsoft Excel. Peak area ratios of test compound to internal standard (listed in the below table) were determined from extracted ion chromatograms.
# All calculations were carried out using Microsoft Excel. Peak areas were determined from extracted ion chromatograms. The slope value, k, was determined by linear regression of the natural logarithm of the remaining percentage of the parent drug vs. incubation time curve.
# The in vitro half-life (in vitro t1/2) was determined from the slope value:
# Conversion of the in vitro t1/2 (min) into the in vitro intrinsic clearance (in vitro CLint, in μL/min/mg proteins) was done using the following equation (mean of duplicate determinations): […]
# [3] = In vivo pharmacokinetics in male Sprague Dawley rats; set-up: species or system rat; conditions: 0.992 mg/kg s.c.; for AUC(0-t): read-out: AUC0-tlast
# Excerpt: Example 13 (I-B-1): In Vivo Assessment of the Pharmacokinetics in Mice and Rats
# 5. PK Analysis • i. Analysis software: Phoenix® WinNonlin® 8.2 (Pharsight, Certara, Mountainview, CA) • ii. Analysis methods: non-compartmental analysis, linear up/log down trapezoidal rule • iii. PK parameters: C0, t1/2, AUC0-tlast. AUC0-∞, CL, Vss, MRT, tmax(po), Cmax(po), F, as appropriate
# T1 sequence (P28223 whole entry): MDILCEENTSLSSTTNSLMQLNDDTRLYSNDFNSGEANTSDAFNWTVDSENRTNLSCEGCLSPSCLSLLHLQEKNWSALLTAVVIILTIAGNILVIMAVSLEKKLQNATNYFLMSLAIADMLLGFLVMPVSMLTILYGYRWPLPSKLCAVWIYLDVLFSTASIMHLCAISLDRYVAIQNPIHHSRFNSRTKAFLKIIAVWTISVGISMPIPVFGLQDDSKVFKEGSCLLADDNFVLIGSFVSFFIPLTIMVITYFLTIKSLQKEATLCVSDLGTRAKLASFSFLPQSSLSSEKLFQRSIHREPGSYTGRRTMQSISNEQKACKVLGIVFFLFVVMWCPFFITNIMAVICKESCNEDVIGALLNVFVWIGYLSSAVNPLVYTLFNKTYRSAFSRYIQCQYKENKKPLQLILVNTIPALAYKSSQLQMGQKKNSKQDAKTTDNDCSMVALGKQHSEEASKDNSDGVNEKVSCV
smiles,measurement,setting,value
"[2H]C([2H])(c1c[nH]c2ccccc12)[C@H]1CCCN1C([2H])([2H])[2H] [I-B-1, (R)-3-((1-(methyl-d3)pyrrolidin-2-yl)methyl-d2)-1H-indole]",EC50,[1],100 to 1000 nM
same,half-life at 2 μM,"[2]; male, mouse, microsomes",1.16 h
same,microsomal CLint at 2 μM,"[2]; male, mouse, microsomes",19.9 µL/min/mg
same,Remaining Percentage (%) after 60 min Mouse,"[2]; mouse liver microsomes, with NADPH, 2 μM",55.00%
same,F,[3]; Mean ± SD,133 ± 10.1%
same,AUC0-tlast,[3]; individual animals,137 ng·h/mL and 133 ng·h/mL
same,AUC(0-inf),[3]; individual animals,154 ng·h/mL and 133 ng·h/mL
same,Apparent t1/2,[3]; individual animals,0.990 h and 26.6^a h and 1.18 h
same,Cmax,[3]; individual animals,140 ng/mL and 137 ng/mL and 64.6 ng/mL
same,F,[3]; individual animals,132% and 144% and 124%
same,MRT0-inf,[3]; individual animals,1.07 h and 9.03 h and 1.40 h
same,tmax,[3]; individual animals,0.0833 h and 1.00 h
same,AUC(0-inf),"[3]; male, Sprague Dawley, rat, plasma, sc, 0.992 mg/kg, Mean ± SD, read-out: AUC0-inf",143 ± 10.8 ng·h/mL
same,AUC(0-t),"[3]; male, Sprague Dawley, rat, plasma, sc, 0.992 mg/kg, Mean ± SD",136 ± 3.91 ng·h/mL
same,Cmax,"[3]; male, Sprague Dawley, rat, plasma, sc, 0.992 mg/kg, Mean ± SD, read-out: Cmax",114 ± 42.7 ng/mL
same,MRT inf,"[3]; male, Sprague Dawley, rat, plasma, sc, 0.992 mg/kg, Mean ± SD, read-out: MRT0-inf",3.83 ± 4.5 h
same,tmax,"[3]; male, Sprague Dawley, rat, plasma, sc, 0.992 mg/kg, Mean ± SD, read-out: tmax",0.25 h
same,AUC(0-inf),"[3]; male, Sprague Dawley, rat, plasma, sc, 0.992 mg/kg, individual animals, read-out: AUC0-inf",141 ng·h/mL
same,AUC(0-t),"[3]; male, Sprague Dawley, rat, plasma, sc, 0.992 mg/kg, individual animals",140 ng·h/mL
same,half-life,"[3]; male, Sprague Dawley, rat, plasma, sc, 0.992 mg/kg, mean (n = 2), outlier excluded, read-out: Apparent t1/2 (converted)",1.09 h
